# Where “and” joins values, the source holds several entries; their conditions need not be identical. Equal entries are not always repeated.
# Tested on: Swiss mice, Sarcoma 180 sc, mean tumor weight T/C
# Experiment: NCI In Vivo Anticancer Drug Screen. Data for tumor model Sarcoma 180 (subcutaneous) in Swiss mice
# Conditions: endpoint: mean tumor weight, higher = larger tumour
# Outline: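 Antitumor activity is assessed in mice with transplantable tumors. Treated (T) and vehicle control (C) groups are compared on survival or tumor size.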
# [1] = dose: 200.0 mg/kg/injection, schedule: Q01DX007 (ip), vehicle: saline
# [2] = dose: 25.0 mg/kg/injection, schedule: Q01DX007 (ip), vehicle: saline
# [3] = dose: 50.0 mg/kg/injection, schedule: Q01DX007 (ip), vehicle: saline
# [4] = dose: 125.0 mg/kg/injection, schedule: Q01DX007 (ip), vehicle: carboxymethylcellulose (CMC)
# [5] = dose: 250.0 mg/kg/injection, schedule: Q01DX007 (ip), vehicle: carboxymethylcellulose (CMC)
# [6] = dose: 62.0 mg/kg/injection, schedule: Q01DX007 (ip), vehicle: carboxymethylcellulose (CMC)
structure (smiles),measurement,setting,value
C[C@]12CC[C@H](O)C[C@@H]1CC[C@@H]1[C@@H]2C(=O)C[C@]2(C)C3=CC(=O)O[C@H]3C[C@@H]12,T/C,"dose: 5.0 mg/kg/injection, schedule: Q01DX007 (sc), vehicle: steriod suspending solution",103 % of control
same,T/C,"dose: 10.0 mg/kg/injection, schedule: Q01DX007 (sc), vehicle: steriod suspending solution",97 % of control
same,T/C,"dose: 40.0 mg/kg/injection, schedule: Q01DX007 (sc), vehicle: steriod suspending solution",95 % of control
CNC(C)C(O)c1ccccc1 (centres undefined),T/C,"dose: 133.0 mg/kg/injection, schedule: Q01DX007 (ip), vehicle: saline",78 % of control
same,T/C,[1],60 % of control
Cc1cc(N(CCCl)CCCl)ccc1C=Nc1ccccc1-c1ccccc1,T/C,[2],100 % of control
same,T/C,[3],96 % of control
same,T/C,"dose: 100.0 mg/kg/injection, schedule: Q01DX007 (ip), vehicle: saline",105 % of control
same,T/C,[1],73 % of control
CC(C)C(=O)OCC1OC(n2cnc3c(=S)nc[nH]c32)C(OC(=O)C(C)C)C1OC(=O)C(C)C (centres undefined),T/C,"dose: 17.0 mg/kg/injection, schedule: Q01DX007 (ip), vehicle: steriod suspending solution",80 % of control
same,T/C,"dose: 24.0 mg/kg/injection, schedule: Q01DX007 (ip), vehicle: carboxymethylcellulose (CMC)",76 % of control
same,T/C,"dose: 25.0 mg/kg/injection, schedule: Q01DX007 (ip), vehicle: steriod suspending solution",61 % of control
same,T/C,"dose: 37.0 mg/kg/injection, schedule: Q01DX007 (ip), vehicle: carboxymethylcellulose (CMC)",38 % of control
same,T/C,"dose: 37.0 mg/kg/injection, schedule: Q01DX007 (ip), vehicle: steriod suspending solution",66 % of control
same,T/C,"dose: 55.0 mg/kg/injection, schedule: Q01DX007 (ip), vehicle: carboxymethylcellulose (CMC)",31 % of control and 47 % of control
same,T/C,"dose: 55.0 mg/kg/injection, schedule: Q01DX007 (ip), vehicle: steriod suspending solution",27 % of control and 37 % of control
same,T/C,"dose: 84.0 mg/kg/injection, schedule: Q01DX007 (ip), vehicle: carboxymethylcellulose (CMC)",25 % of control and 31 % of control
same,T/C,"dose: 84.0 mg/kg/injection, schedule: Q01DX007 (ip), vehicle: steriod suspending solution",52 % of control
same,T/C,[4],8 % of control
same,T/C,"dose: 125.0 mg/kg/injection, schedule: Q01DX007 (ip), vehicle: steriod suspending solution",26 % of control
same,T/C,"dose: 188.0 mg/kg/injection, schedule: Q01DX007 (ip), vehicle: steriod suspending solution",14 % of control and 17 % of control
same,T/C,"dose: 282.0 mg/kg/injection, schedule: Q01DX007 (ip), vehicle: steriod suspending solution",16 % of control
same,T/C,"dose: 423.0 mg/kg/injection, schedule: Q01DX007 (ip), vehicle: steriod suspending solution",16 % of control
O=C(O)CCC(=O)CCl,T/C,"dose: 6.2 mg/kg/injection, schedule: Q01DX007 (ip), vehicle: saline",76 % of control
same,T/C,"dose: 9.3 mg/kg/injection, schedule: Q01DX007 (ip), vehicle: saline",57 % of control
same,T/C,"dose: 14.0 mg/kg/injection, schedule: Q01DX007 (ip), vehicle: saline",57 % of control
same,T/C,"dose: 21.0 mg/kg/injection, schedule: Q01DX007 (ip), vehicle: saline",46 % of control and 55 % of control
same,T/C,"dose: 30.0 mg/kg/injection, schedule: Q01DX007 (ip), vehicle: saline",31 % of control
C(=N\N(c1ccccc1)c1ccccc1)/C(=C/c1ccccc1)c1ccccc1,T/C,[4],85 % of control
same,T/C,[5],92 % of control
same,T/C,"dose: 500.0 mg/kg/injection, schedule: Q01DX007 (ip), vehicle: carboxymethylcellulose (CMC)",102 % of control
Cc1ncc(CO)c(CNC(=O)N(C)N=O)c1O,T/C,[6],60 % of control
NC(=O)c1ccccc1Nc1ccc([N+](=O)[O-])cc1[N+](=O)[O-],T/C,"dose: 37.5 mg/kg/injection, schedule: Q01DX007 (ip), vehicle: carboxymethylcellulose (CMC)",92 % of control
same,T/C,"dose: 75.0 mg/kg/injection, schedule: Q01DX007 (ip), vehicle: carboxymethylcellulose (CMC)",67 % of control
C[C@@H]1C[C@](O)([C@@H](C)Cl)C(=O)O[C@@H]2CCN3CC=C(COC(=O)[C@]1(C)O)[C@H]23,T/C,[2],74 % of control
CS(=O)(=O)OCCC(=O)N1CCN(C(=O)CCOS(C)(=O)=O)CC1,T/C,"dose: 12.5 mg/kg/injection, schedule: Q01DX007 (ip), vehicle: saline",92 % of control
same,T/C,[2],76 % of control and 100 % of control
same,T/C,"dose: 67.0 mg/kg/injection, schedule: Q#A X014 (ip), vehicle: methylcellulose (MC)",8 % of control and 23 % of control
same,T/C,"dose: 150.0 mg/kg/injection, schedule: Q#A X014 (ip), vehicle: methylcellulose (MC)",7 % of control
O=c1[nH]c(Cl)ncc1F,T/C,"dose: 22.0 mg/kg/injection, schedule: Q01DX007 (ip), vehicle: saline",36 % of control
same,T/C,"dose: 33.0 mg/kg/injection, schedule: Q01DX007 (ip), vehicle: saline",46 % of control
same,T/C,[3],29 % of control
same,T/C,"dose: 75.0 mg/kg/injection, schedule: Q01DX007 (ip), vehicle: saline",5 % of control
C[C@]12CCC(=O)C=C1CC[C@@H]1[C@@H]2[C@@H](O)C[C@@]2(C)[C@H]1CC[C@]2(O)C(=O)CF,T/C,"dose: 25.0 mg/kg/injection, schedule: Q#A X014 (sc), vehicle: steriod suspending solution",55 % of control
same,T/C,"dose: 125.0 mg/kg/injection, schedule: Q#A X014 (sc), vehicle: steriod suspending solution",43 % of control
same,T/C,"dose: 148.0 mg/kg/injection, schedule: Q01DX007 (sc), vehicle: steriod suspending solution",36 % of control
same,T/C,"dose: 222.0 mg/kg/injection, schedule: Q01DX007 (sc), vehicle: saline",26 % of control
same,T/C,"dose: 222.0 mg/kg/injection, schedule: Q01DX007 (sc), vehicle: steriod suspending solution",19 % of control
same,T/C,"dose: 250.0 mg/kg/injection, schedule: Q#A X014 (sc), vehicle: steriod suspending solution",43 % of control
same,T/C,"dose: 333.0 mg/kg/injection, schedule: Q01DX007 (sc), vehicle: saline",25 % of control
same,T/C,"dose: 500.0 mg/kg/injection, schedule: Q01DX007 (sc), vehicle: saline",21 % of control
same,T/C,"dose: 750.0 mg/kg/injection, schedule: Q01DX007 (sc), vehicle: saline",20 % of control
same,T/C,"dose: 1125.0 mg/kg/injection, schedule: Q01DX007 (sc), vehicle: steriod suspending solution",13 % of control
CCOC(=O)c1ccc(N=NN(C)C)cc1,T/C,[6],74 % of control
same,T/C,[4],49 % of control
same,T/C,"dose: 187.0 mg/kg/injection, schedule: Q01DX007 (ip), vehicle: carboxymethylcellulose (CMC)",23 % of control
same,T/C,[5],12 % of control
C=C(C)C(=O)OCC1CO1 (centres undefined),T/C,"dose: 250.0 mg/kg/injection, schedule: Q01DX007 (ip), vehicle: other",97 % of control
same,T/C,"dose: 375.0 mg/kg/injection, schedule: Q01DX007 (ip), vehicle: other",74 % of control
O=c1[nH]c(=S)c2[nH]c(=O)[nH]c2[nH]1,T/C,"dose: 50.0 mg/kg/injection, schedule: Q#A X014 (ip), vehicle: methylcellulose (MC)",94 % of control
same,T/C,"dose: 100.0 mg/kg/injection, schedule: Q#A X014 (ip), vehicle: methylcellulose (MC)",73 % of control
same,T/C,"dose: 200.0 mg/kg/injection, schedule: Q#A X014 (ip), vehicle: methylcellulose (MC)",101 % of control
CC(C)(S)C(N)C(=O)O (centres undefined),T/C,"dose: 500.0 mg/kg/injection, schedule: Q01DX007 (oral), vehicle: saline",122 % of control
same,T/C,"dose: 1000.0 mg/kg/injection, schedule: Q01DX007 (oral), vehicle: saline",118 % of control
